PMC9818021, “Targets, Mechanisms and Cytotoxicity of Half-Sandwich Ir(III) Complexes Are Modulated by Structural Modifications on the Benzazole Ancillary Ligand” (Cancers, 2022)

Test system: gene expression (stress response, apoptosis, cell cycle genes)
Assay: Microarray differential gene expression (Affymetrix Human Gene 2.1 ST)
Assay type: cell-based
Conditions: vs. Control, 6 h after treatment
Method: DNA damage was measured using EpiQuik 8-OHdG DNA Damage Quantification Direct Kit (colorimetric) (Fischer, Waltham, MA, USA, P600396); The mitochondrial cytochrome C release was evaluated using the “Millipore’s FlowCellect Cytochrome C Kit (Millipore, FCCH100110)”. Lactate dehydrogenase activity release was measured in the culture medium using Cytotoxicity Detection Kit (Roche Diagnostic, Barcelona, Spain, 11 644 793 001). Protein synthesis was determined using Click-iT Plus O-propargyl-puromycin (OPP) Protein Synthesis Assay Kit (Invitrogen™, Waltham, MA, USA). Measurement of GSH/GSSG was determined with GSH/GSSG-Glo Assay (Promega, V6611). Measurements of OCR and ECAR with Seahorse XFp (Agilent Technologies) were determined using the XFp Cell Mito Stress Test Kit (103010-100) and XFp Glycolysis Stress Test Kit (103017-100). ATP measurement was determined with Cell Titer-Glo Luminescent Cell Viability Assay (Promega, Madison, WI, USA, G7570). Determination of DNA damage using phosphorylated H2AX measurement were performed as previously described. Cardiolipin oxidation using the fluorophore Nonyl Acridine Orange (NAO, Thermo Scientific, A1372) was performed as described. Cell viability was determined by Hoechst inclusion and Propidium iodide (PI) exclusion by standard protocols. TEM analysis were performed as described. Cell cycle analysis by flow cytometry and microarrays analysis were performed as described. Arrays data have been deposited in the ArrayExpress database at EMBL-EBI (www.ebi.ac.uk/arrayexpress) under accession number E-MTAB-860 (10 November 2022)
Studies of the effect of 1[C,NH] on gene expression were performed and assessed 6 h after treatment, in a middle phase, when most cells were still alive (see S.I. Movie S2) but already with characteristic morphological features of apoptosis (Movie S1). Gene expression profiles of cells was determined by Affymetrix Human Gene 2.1 ST Array Plate in three independent experiments. In order to confirm the microarray data, we selected some genes involved in several key pathways: stress response, apoptosis and cell cycle to validate the changes in the expression by RT-qPCR. Results indicated a good correlation between microarray analysis and RT-qPCR. (Table S11). […] Note that not all genes are annotated with these databases. However, the negative regulation of metabolic process and negative regulation of macromolecule metabolic process are highly represented, and ~38% (84) of all genes could be classified in this way. […] The effect of 1[C,NH] on cell cycle progression was further assessed by flow cytometry. […] In summary, mRNA expression analysis is in good agreement with the elevation of ROS, oxidative stress response, cell cycle arrest and induction of apoptosis.

Cc1c(C)c(C)[c-](C)c1C.[Cl][Ir]1[c]2ccccc2-c2[nH]c3ccccc3[n+]21 [1[C,NH], [(η^5-Cp*)IrCl(κ^2-N,C-pbim)]]
ATF3 Microarray (Fold Change (linear)): 37
ATP1B2 Microarray (Fold Change (linear)): 34.8
BBC3 Microarray (Fold Change (linear)): 3.3
BCL2L11 Microarray (Fold Change (linear)): 5.1
CHAC1 Microarray (Fold Change (linear)): 3
DDIT3 Microarray (Fold Change (linear)): 23
EGR1 Microarray (Fold Change (linear)): > 100
FOSB Microarray (Fold Change (linear)): > 100
HIST1H1B Microarray (Fold Change (linear)): -6.6
MIR9-1 Microarray (Fold Change (linear)): 26.8
PMAIP1 Microarray (Fold Change (linear)): 7.1
PPP1R15A Microarray (Fold Change (linear)): 11
SKP2 Microarray (Fold Change (linear)): -4.7
